Results on 15 compounds are retold here after patent publication US20070010428A1, “Inhibitors of signal transduction and activator of transcription 3” (priority 2004, published 2007).

pIC50: −log10 of the molar value. Where two headings read alike, the source gives them in different places. Where a SMILES comes first, the peptide text is derived from it. [ ]: non-standard residue; d: D form. pY = N[C@@H](Cc1ccc(OP(=O)(O)O)cc1)C(=O)O; mts = not defined here

One assay relates to SH2 domain of Stat3. The assay is described as follows: IC50 FP (nM). As to the method: Table printed on a drawing sheet, FIGURE 14a
Head of the field: IC50 FP (nM)
First copying reader's note: The column headed 'Structure' holds only drawn chemical structures (left empty here); the written peptidomimetic sequence stands in an unheaded column to its left.
Where the first naming reader finds the target: passage: The small peptidomimetics were assayed for their ability to bind to the SH2 domain of Stat3 using fluoresence polarization.

The subject of assay [1] is Stat3-responsive α2-macroglobulin promoter. Nature of the assay: IL-6 stimulated luciferase reporter in Hep3B cells. The assay is classed as cell-based. The following applies: FIG. 10. The protocol:
Peptidomimetic 23 was tested for the ability to inhibit luciferase induction in a second hepatoma cell line: Hep3B. Identical procedures as for the HEPG2 experiments above were used in this cell line.
(§1) Cell culture and transient transfection. HepG2 cells were grown in DMEM containing 10% fetal bovine serum. Cells were plated at a density of 3×10^5 per 6cm dish. Next day, plasmids were transfected with a plasmid comprised of firefly luciferase under the α2-macroglobulin promoter (Ren & Schaefer, 2002) at a ratio of 1 μg DNA to 3 μl Fugene-6 reagent according to the protocol supplied by Roche. After 48 hours, cells were treated with different peptides in serum free media for 1 hour, and then stimulated with […] IL-6. Cells were harvested at the time indicated.
Luciferase assay. Luciferase assay reagents were purchased from Promega and the assays performed according to the manufacturer's protocol. In brief, cells were washed twice with ice-cold PBS and then collected. After centrifugation at 4,500 rpm for 1 minute, cells were lysed in 1× lysis buffer (Promega) at room temperature for 30 minutes. The lysate was cleared by centrifugation at 13,000 rpm for 10 minutes. Then 50 μl of luciferase substrate was added to 10 μl of supernatant and the luciferase value was read by luminometer (Pharmingen). […]
Background: Reporter assays use an easily measured gene product as a stand-in for the process of interest.

Assay [2] has as its target T1, Stat3 (Homo sapiens, UniProt P40763). The assay is described as follows: Stat3 nuclear translocation, EMSA of nuclear extracts of IL-6 stimulated HepG2 cells. The format is cell-based. The following applies: HepG2, 100 μM for 1 hr, IL-6 15 min. As to the method:
FIG. 11 is an image of a gel showing EMSA of nuclear extracts of HEPG2 cells inhibited with peptides. Shown are gels from two independent experiments. Lane 1, control: no IL-6 or inhibitor. Lane 2-6 are all stimulated with IL-6, 6 ng/mL. Lane 2, no inhibitor, Lane 3 phosphopeptide 24, Lane 4, control peptide 25, Lane 5, F2PmCinn peptide 21, Lane 6, prodrug 23.
HepG2 cells were treated with 100 μM peptide for 1 hr. Cells were stimulated with IL-6 and 15 min later cells were lysed and nuclear extracts were obtained.
(§2) Nuclear extract was extracted as previously described (Andrews and Faller, 1991). Equal amount of nuclear extract protein was then incubated with ^32P labeled high-affinity c-sis-inducible element (hSIE; 5′-[…]-3′ , SEQ ID NO:25) (Santa Cruz). The reactions were performed in a total volume of 24 μl in buffer consisting of 10 mM HEPES (pH 7.8), 50 mM KCl, 1 mM EDTA, 5 mM MgCl2, 10% glycerol, 5 mM dithiothreitol, 1 mg of bovine serum albumin per ml, 0.5 mM phenyl-methylsulfonylflouride, and 1 mM Na3VO4 with 1 μg of poly (dI-dC) and 0.3 ng of ^32P-labeled hSIE. Following incubation for 15 min at room temperature, the reactions were electrophoresed on 4% native polyacrylamide gets. […] The screen was then scanned and the bands showing Stat3-DNA binding were quantified using the Storm System (Molecular Dynamics).
(In EMSA bound probe runs differently from free probe, usually more slowly.)

The target of the next assay is T2, full length Stat3 (Homo sapiens, UniProt P40763).
T2 construct: Aliquots of 50 μl of 80 nM full length Stat^3a and 20 nM of probe
Nature of the assay: Fluorescence polarization assay, competition with FP probe for full length Stat3. The assay is classed as binding. As to the method: FIG. 5 is FP curves of Stat3. Left panel, Titration of full length Stat3 into 10 nM solutions of FP probe. Each protein concentration was run in duplicate and the mean ±½ the difference between the high and low value was plotted. […] Each peptide concentration was run in duplicate and the mean ±½ the difference between the high and low value was plotted. A Perkin Elmer (formerly Packard) 204DT Multiprobe liquid handling robot was used to prepare serial dilutions of the inhibitors and to add these solutions to Stat3-probe solutions. The dilutions and additions were done in 96-well plates and FP was read on a Tecan Polarian plate reader. […]
Fluorescence polarization (FP) is a rapid and easy method for the measurement of peptide-protein interactions, drug-protein interactions, and drug-oligonucleotide interactions, and is readily adaptable to high throughput formats (reviewed in Nasir & Joley, 1999; Owicki, 2000). FP involves exciting a fluorophore with polarized light and taking the ratio of fluorescence at right angles after a brief period of time. […]
Aliquots of 50 μl of 80 nM full length Stat^3a and 20 nM of probe in 50 mM NaCl, 10 mM Hepes, 1 mM Na4EDTA, 2 mM DTT, and 1% NP-40 were placed in wells of a 96 well black, opaque, non-stick microtiter plate. […] Fluorescence polarization was then read in a Tecan Polarian plate reader. […]
On the technique in general: Polarisation of emitted light reports the rotation of a fluorescent probe.

Assay [3] concerns Stat3-responsive α2-macroglobulin promoter. Nature of the assay: IL-6 stimulated luciferase reporter under α2-macroglobulin promoter in HEPG2 cells. The format is cell-based. The following applies: for inhibition of luciferase activity, initial screen: IL-6. The protocol: Liver hepatoma cells, HEPG2, when stimulated with IL-6, respond by increased phosphorylation of Stat3, which translocates to the nucleus and initiates transcription of acute response phase genes, such as a2-macroglobulin. HEPG2 cells were transfected with luciferase gene construct containing the α2-macroglobulin promoter. Cells were treated with peptides 21, 24, and 25 for 1 hr before stimulation with IL-6. Four hours later cells were lysed and luciferase activity was assayed (FIG. 9). […] Phosphopeptide 24 reduced induction to 60-70% of that of IL-6 at 50 and 100 μM.
as §1
Luciferase assay. Luciferase assay reagents were purchased from Promega and the assays performed according to the manufacturer's protocol. In brief, cells were washed twice with ice-cold PBS and then collected. After centrifugation at 4,500 rpm for 1 minute, cells were lysed in 1× lysis buffer (Promega) at room temperature for 30 minutes. The lysate was cleared by centrifugation at 13,000 rpm for 10 minutes. Then 50 μl of luciferase substrate was added to 10 μl of supernatant and the luciferase value was read by luminometer (Pharmingen). Each transfection was normalized to concomitant β-galactosidase expression from a control transfected plasmid pYN3214-lacZ.

In assay [4] the target is T1, Stat3. The assay is described as follows: EMSA of inhibition of Stat3 dimerization and DNA binding by phosphopeptides. The format is biochemical. The following applies: averages of two determinations. As to the method:
To find a lead compound for inhibitor development, a series of phospho-hexapeptides derived from known receptor docking sites for Stat3 were synthesized and assayed for their ability to inhibit Stat3 dimerization and DNA binding using electrophoretic mobility shift assays (EMSA) (Ren et al., 2003). […] SAR experiments were conducted systematically replacing each amino acid. The goal was to find non-peptidic groups that would be stable to phosphatases and proteases, and that would be more hydrophobic to allow greater bioavailability. […] The small peptidomimetics were assayed for their ability to bind to the SH2 domain of Stat3 using fluoresence polarization.
as §2, with “hSIE.” for “hSIE. Following incubation for 15 min at room temperature, the reactions were electrophoresed on 4% native polyacrylamide gets.”

Assay [5] concerns the target T1, Stat3. The settings on record: cited from earlier work.

T1 sequence (P40763 whole entry, species assumed): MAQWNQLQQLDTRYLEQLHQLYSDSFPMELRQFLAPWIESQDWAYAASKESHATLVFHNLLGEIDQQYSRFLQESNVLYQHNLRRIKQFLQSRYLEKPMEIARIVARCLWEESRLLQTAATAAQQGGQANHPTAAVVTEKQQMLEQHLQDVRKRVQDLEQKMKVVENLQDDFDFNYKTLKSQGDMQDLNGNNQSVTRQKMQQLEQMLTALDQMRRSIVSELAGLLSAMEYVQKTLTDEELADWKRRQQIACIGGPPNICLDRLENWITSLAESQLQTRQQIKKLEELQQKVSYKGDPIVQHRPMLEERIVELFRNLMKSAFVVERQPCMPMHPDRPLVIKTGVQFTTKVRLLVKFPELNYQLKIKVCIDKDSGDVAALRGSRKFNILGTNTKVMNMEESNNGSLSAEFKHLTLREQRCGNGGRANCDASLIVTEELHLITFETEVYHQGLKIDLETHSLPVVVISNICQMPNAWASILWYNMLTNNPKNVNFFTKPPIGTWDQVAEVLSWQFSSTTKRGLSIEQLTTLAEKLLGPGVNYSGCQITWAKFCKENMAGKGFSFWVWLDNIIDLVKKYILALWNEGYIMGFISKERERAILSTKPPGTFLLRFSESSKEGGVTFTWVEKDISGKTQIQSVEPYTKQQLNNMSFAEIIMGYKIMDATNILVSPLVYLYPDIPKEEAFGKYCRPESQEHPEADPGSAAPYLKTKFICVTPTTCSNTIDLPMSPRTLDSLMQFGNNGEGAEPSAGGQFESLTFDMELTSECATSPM
T2 sequence (P40763 whole entry, species assumed): as above

Take F2PmCinn-Cha-Pro- Gln-NHBn [8 | PM-88D]: the pIC50 (usually −log10 of the IC50, conventionally taken in molar units) with SH2 domain of Stat3 was 5.70.
In the case of “F2Pm(POM)Cinn-Haic-Gln-NHBn [Compound 23]”, the “reduction in luciferase activity” value in assay [1] was “dose dependant reduction in luciferase activity”. Moreover, the “inhibition of Stat3 translocation to the nucleus” value against Stat3 [2] is recorded as “inhibited Stat3 translocation to the nucleus”.
Compound pCinn-Leu-Pro-Gln- Thr-NH2 [5 | PM-50D] showed a pIC50 with SH2 domain of Stat3 of 6.96.
`CC(=O)NC(Cc1ccc(OP(=O)(O)O)cc1)C(=O)NC1CCc2cccc3c2N(C1=O)C(C(=O)NC(CCC(N)=O)C(=O)NC(C(N)=O)C(C)O)C3` (stereo not drawn) [Compound 10, Ac-pTyr-Haic-Gln-Thr-NH2]: the pIC50 on full length Stat3 (10 nM probe and 40 nM Stat3 final, read-out: IC50 (fluorescence polarization)) was 6.70 to 7.00.
On to “Ac-pTyr-Leu-Pro-Gln-Thr-Val-mts (Ac-[pY]LPQTV-mts; reading uncertain; also: printed as Ac-pTyr-Leu-Pro-Gln-Thr-Val-mts) [Peptide 24]”, for which the “luciferase induction, % of that of IL-6” value in assay [3] (HEPG2, at 50 and 100 μM) is recorded as 60-70%.
With `NC(=O)CCC(NC(=O)C1CCC2CCC(NC(=O)C=Cc3ccc(OP(=O)(O)O)cc3)C(=O)N21)C(=O)NCc1ccccc1` (stereo not drawn) [FIG. 15 compound], the negative-log IC50 (pIC50) on full length Stat3 (assay not named, presumably fluorescence polarization, read-out: IC50 of the FIG. 15 compound) is 6.40.
As for “Ac-Tyr-Leu-Pro-Gln-Thr-Val-mts (Ac-YLPQTV-mts; not fully specified; printed as Ac-Tyr-Leu-Pro-Gln-Thr-Val-mts; reading uncertain) [Peptide 25, non-phosphorylated control]”, the “reduction in luciferase activity” value in assay [3] (HEPG2, 50 or 100 μM, 1 hr before IL-6, lysed 4 h later) is given as “no significant reduction in luciferase activity”.
As to `CC(=O)N[C@@H](Cc1ccc(OP(=O)(O)O)cc1)C(=O)N[C@@H](CC(C)C)C(=O)N[C@@H](CCCCN)C(=O)N[C@H](C(=O)N[C@@H](CCCCN)C(=O)N[C@@H](Cc1ccccc1)C(N)=O)[C@@H](C)O` [Peptide 2, Ac-pTyr-Leu-Lys-Thr-Lys-Phe-NH2] (Ac-[pY]LKTKF-NH2), the negative logarithm of the IC50 (pIC50) at Stat3 [4] is 4.70.
Turning to “H-Pro-Tyr-Leu-Lys-Thr-Lys-Phe-Ile-mts (H-PYLKTKFI-mts; not fully specified; reading uncertain) [Peptide 26, reported by Turkson et al (2001), reference compound]”, the “inhibition of luciferase activity, initial screen” value in assay [3] (HEPG2, 100 μM) was “neither phosphopeptide 26 nor the unphosphorylated version, 27 (Turkson et al, 2001), showed inhibition of luciferase activity”.
Turning to “F2PmCinn-Leu-Pro-Gln-Thr-Val-Ala-Ala-Val-Leu-Leu-Pro-Val-Leu-Leu-Ala-Ala-Pro-NH2 [Peptide 21]”, the “luciferase activity, % of untreated cells” value came out at 50% in assay [3] (HEPG2, 50 μM) and 25% in assay [3] (HEPG2, 100 μM). For the same compound, on Stat3 [2], the “inhibition of Stat3 translocation to the nucleus” value is “inhibited Stat3 translocation to the nucleus”.
As for pCinn-Cha-Pro-Gln- NHBn [7 | PM-66D], in the assay on SH2 domain of Stat3, the pIC50 is 7.30.
Take “H-Pro-pTyr-Leu-Lys-Thr-Lys-Phe-Ile-mts (H-P[pY]LKTKFI-mts; reading uncertain; also: printed as H-Pro-pTyr-Leu-Lys-Thr-Lys-Phe-Ile-mts) [Peptide 27, reported by Turkson et al (2001), reference compound]”: the “inhibition of luciferase activity, initial screen” value in assay [3] (HEPG2, 100 μM) is “neither phosphopeptide 26 nor the unphosphorylated version, 27 (Turkson et al, 2001), showed inhibition of luciferase activity”.
Take pInd-Cha-Pro-Gln- NHBn [9 | PM-67D]: in the assay with SH2 domain of Stat3, the pIC50 is 7.00.
As for “H-P[pY]LKTKAAVLLPVLLAAP-OH [SEQ ID NO:4]”, the “concentration required to inhibit luciferase reporter gene expression, Stat3 nuclear translocation, and cell growth” value on Stat3 [5] (cell culture, Turkson et al.) was 0.5 to 1 mM.
Turning to `CC(C)C[C@H](NC(=O)[C@H](Cc1ccc(OP(=O)(O)O)cc1)NC(=O)c1ccc(C#N)cc1)C(=O)O` [ISS 610], the “concentration required for activity in luciferase reporter and cell growth assays” value at Stat3 [5] (cell culture models, Turkson et al. (2004)) is given as 1 mM.
